Measured values: publication PMC3440242 (Peptides, 2012)
Read-outs that look alike come from different tables or passages of the source.

What was measured:
CHO cells [1] = experiment: Cell detachment, protein loss and lysis of CHO cells
Y2 receptor [2] = molecular target: T1, Y2 receptor (Homo sapiens, UniProt P49146); settings: read-out: ic50, [^125I] hPYY(3-36) binding to particulate Y2 receptor; cited from earlier work
T1 sequence (P49146 1-381): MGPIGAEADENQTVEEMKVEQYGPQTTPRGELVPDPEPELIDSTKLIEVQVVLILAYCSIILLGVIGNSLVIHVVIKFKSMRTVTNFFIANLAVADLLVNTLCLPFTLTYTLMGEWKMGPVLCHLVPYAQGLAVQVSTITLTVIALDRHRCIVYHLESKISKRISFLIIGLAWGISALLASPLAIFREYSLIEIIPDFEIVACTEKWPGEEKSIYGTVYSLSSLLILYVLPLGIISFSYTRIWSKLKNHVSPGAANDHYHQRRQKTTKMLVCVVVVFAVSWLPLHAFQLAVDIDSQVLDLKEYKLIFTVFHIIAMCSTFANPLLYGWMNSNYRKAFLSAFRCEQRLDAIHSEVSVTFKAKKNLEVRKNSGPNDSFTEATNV

[3] = molecular target: G-protein nucleotide sites (Gi α subunits) (Cricetulus griseus, UniProt Q60397); experiment: ^35S-GTPγS binding to Y2-CHO particulates; settings: Y2-CHO cells
Sequence of G-protein nucleotide sites (Gi α subunits) (Q60397 2-354): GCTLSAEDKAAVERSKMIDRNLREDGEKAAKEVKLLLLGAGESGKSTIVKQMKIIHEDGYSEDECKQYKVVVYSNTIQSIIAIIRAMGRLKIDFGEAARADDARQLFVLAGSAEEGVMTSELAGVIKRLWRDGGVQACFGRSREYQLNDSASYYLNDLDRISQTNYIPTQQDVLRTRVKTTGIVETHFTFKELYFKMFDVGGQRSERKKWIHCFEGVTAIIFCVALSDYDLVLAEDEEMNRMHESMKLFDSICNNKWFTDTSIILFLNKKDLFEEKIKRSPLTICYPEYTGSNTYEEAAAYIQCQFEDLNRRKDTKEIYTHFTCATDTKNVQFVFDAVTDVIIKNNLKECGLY

CHO cells [4] = tested on: CHO cells
CHO cells [5] = tested on: CHO cells; remark: listed apart in the source
CHO cells [6] = experiment: Permeabilization of CHO cells; settings: 20 min at 37 °C
[7] = stated without reference; cited from earlier work
Y4 receptor = experiment: Agonist binding to surface Y4 receptor in CHO monolayers after unmasking agent; type: cell-based; settings: 30 μM digitonin pretreatment, 20 min at 37 °C; 50 pM [^125I] hPP
Y1 receptor = experiment: Agonist binding to surface Y1 receptor in CHO monolayers after unmasking agent; type: cell-based; settings: 30 μM digitonin pretreatment, 20 min at 37 °C; 50 pM [^125I] hNPY
[8] = tested on: G-protein nucleotide sites (Gi3 α subunit); type: cell-based
guinea pig Y2 receptor = experiment: Unmasking of surface guinea pig Y2 receptor in adherent CHO cells; type: cell-based; settings: 30 μM agent, 20 min at 37 °C, 50 pM [^125I] hPYY(3-36), at least three experiments
Y2 receptor [9] = molecular target: T1, Y2 receptor; experiment: Particulate Y2 agonist binding
hY2-CHO receptor [10] = settings: read-out: Scatchard affinity / Kdiss, ref [37]; cited from earlier work
hY2-CHO receptor [11] = experiment: Depletion of hY2-CHO surface receptors by agonists; type: cell-based, human; settings: exponential + linear model, four experiments

For `C[C@H](CCC(=O)NCCC[N+](C)(C)CCCS(=O)(=O)[O-])[C@H]1CC[C@H]2[C@@H]3[C@H](O)C[C@@H]4C[C@H](O)CC[C@]4(C)[C@H]3C[C@H](O)[C@]12C` [CHAPS, 3-[(3-Cholamidopropyl)dimethylammonio]-1-propanesulfonate], the “concentration above which CHO cells and particulates are lysed” value (CHO cells [1]) was “above 1 mM”.
In the case of `C[N+](C)(C)CCSS(C)(=O)=O` [MTSET, 2-[trimethylammonium)ethyl] methanethiosulfonate], the IC50 (Y2 receptor [2]) is listed as 264 ± 27 µM.
For `CCN1C(=O)C=CC1=O` [NEM, N-Ethylmaleimide], the IC50 (Y2 receptor [2]) is listed as 146 ± 14 µM.
For `Nc1nc2c(ncn2[C@@H]2O[C@H](COP(=O)(O)OP(=O)(O)OP(O)(O)=S)[C@@H](O)[C@H]2O)c(=O)[nH]1` [^35S-GTPγS, guanosine 5′-O-(3-thiotriphosphate], the “total particulate nucleotide sites” value [3] was 32 ± 0.7 fmol/100,000 cells.
For `C[C@H](CCC(=O)O)[C@H]1CC[C@H]2[C@@H]3[C@H](O)C[C@@H]4C[C@H](O)CC[C@]4(C)[C@H]3C[C@H](O)[C@]12C` [cholate], the “concentration above which CHO cells and particulates are lysed” value (CHO cells [4]) was “above 1 mM” and the “permeabilization of CHO cells (in words)” value (CHO cells [5]) was “did not permeabilize CHO cells at 100 μM”.
With `C[C@@H]1CC[C@@]2(OC1)O[C@H]1[C@@H](O)[C@H]3[C@@H]4CC[C@H]5C[C@@H](O[C@@H]6O[C@H](CO)[C@H](O[C@@H]7O[C@H](CO)[C@@H](O)[C@H](O[C@@H]8OC[C@@H](O)[C@H](O)[C@H]8O)[C@H]7O[C@@H]7O[C@H](CO)[C@H](O)[C@H](O[C@@H]8O[C@H](CO)[C@@H](O)[C@H](O)[C@H]8O)[C@H]7O)[C@H](O)[C@H]6O)[C@H](O)C[C@]5(C)[C@H]4CC[C@]3(C)[C@H]1[C@@H]2C` [digitonin] the “concentration above which CHO cells and particulates are lysed” value (CHO cells [4]) was “above 1 mM”, the “concentration above which protein leakage is observed” value (CHO cells [4]) was “above 30 μM” and the “concentration at/above which cell detachment is found” value (CHO cells [4]) was “about 50 μM”. The “concentration at which permeabilization reached a plateau” value (CHO cells [6]; judged by labeling by ^35S-GTPγS) was 20 µM, the critical micellar concentration [7] was ≥ 100 µM and the “effect on Y4-CHO surface sites” value (Y4 receptor) was “did not increase the Y1-CHO or Y4-CHO surface sites”. The “effect on Y1-CHO surface sites” value (Y1 receptor) was “did not increase the Y1-CHO or Y4-CHO surface sites”, the “digitonin range in which ^35S-GTPγS binding saturates” value [8] was 3 to 30 µM and the “increase of ^35S-GTPγS binding to intact CHO cells” value [8] was 10-15 fold. For the same molecule, the “increase of labeling of adherent confluent Y2-CHO cells” value (guinea pig Y2 receptor) was “about 4 fold”.
In the case of `CCCCC[C@@H](O)[C@H]1C(=O)O[C@H](C)[C@@H](O)/C=C/C=C/C=C/C=C/C=C(\C)[C@@H](O)C[C@H](O)C[C@H](O)C[C@H](O)C[C@H](O)C[C@H](O)C[C@@H]1O` [filipin III], the “concentration at which cell lysis starts” value (CHO cells [4]) is reported as “about 10 μM”, the “concentration at/above which cell detachment is found” value (CHO cells [4]) is reported as “above 15 μM” and the “loss of mainly cytosolic protein” value (CHO cells [4]) is reported as “about 40%”. The “concentration range inducing permeabilization” value (CHO cells [6]; filipin III) was 0.6 to 3 µM, the “^35S-GTPγS binding to Y2-CHO cells (in words)” value [8] was “highly variable” and the “effect on particulate Y2 agonist binding (in words)” value (Y2 receptor [9]) was “no loss of either particulate or surface Y2 sites”. For the same molecule, the IC50 (Y2 receptor [9]; read-out: ic50, agonist binding to Y2-CHO particulates) was ~100 µM.
In the case of “LRHYLNLLTRORY [AcLeu, human neuropeptide Y(24-36), acetyl-Leu(28, 31)]”, the Kd (hY2-CHO receptor [10]) is given as 0.0005 µM, the “% total depletion in component 1” value (hY2-CHO receptor [11]; + 30 μM PAO) is given as 15.6 ± 3.9% and the “K1 (exponential component)” value (hY2-CHO receptor [11]; + 30 μM PAO) is given as 3.0 ± 0.75 nM. The “K2 (linear component)” value (hY2-CHO receptor [11]; + 30 μM PAO) was 243 ± 15 nM, the “% total depletion in component 1” value (hY2-CHO receptor [11]; without PAO) was 32.8 ± 8.5 % and the “K1 (exponential component)” value (hY2-CHO receptor [11]; without PAO) was 6.2 ± 1.6 nM. For the same molecule, the “K2 (linear component)” value (hY2-CHO receptor [11]; without PAO) was 153 ± 17 nM.
With “pertussis toxin: toxin used at 1 ng/ml for 21 h” the “^35S-GTPγS binding to Y2-CHO cells (in words)” value [8] was “highly sensitive to cell pretreatment with pertussis toxin”.
With “polyoxyethylene(20)sorbitan monooleate [Tween 80]” the “permeabilization of CHO cells (in words)” value (CHO cells [5]) was “did not permeabilize CHO cells at 100 μM”.
